Test results published in patent US6734194B2, “Method of use of (imidazol-5-yl)methyl-2-quinolinone derivatives to inhibit smooth muscle cell proliferation” (Janssen Pharmaceutica N.V., priority 1997, dated 2004).

Columns and labels:
Assay type in all cases: cell-based
[1] = tested on: rat A10 arterial smooth muscle cells; assay: Inhibition of smooth muscle cell proliferation, A10 cells; details: 144 h, A10 cell line, incubated six days, Coulter cell count normalized to DMSO-treated controls, read-out: IC50 (concentration of test compound producing a 50% inhibition of cell proliferation)
Description: (§1) The effects of the compounds of the present invention were studied in human pulmonary artery smooth muscle cells (PASMC), human coronary artery smooth muscle cells (CASMC), and rat A10 arterial smooth muscle cells growing under standard tissue culture conditions. CASMC and PASMC cell cultures were purchased from Clonetics (San Diego, Calif.). A10 smooth muscle cells were purchased from the American Type Culture Collection (Bethesda, Md.). Cells were inoculated at an initial cell density of 50,000 cells per well in six-well plastic cluster tissue culture dishes in 3.0 ml of complete growth medium. Test compounds were dissolved in dimethysulfoxide (DMSO) and added in a 3 μl volume to each well to produce the desired concentrations of said test compound (5, 10, 50, 100 and 500 nM final concentrations). Cells were incubated for six days. On day 4, fresh medium plus a fresh solution containing the test compound were added to the cell cultures. On day 6, the growth medium was removed by aspiration. The cells were detached by trypsinizing in 1.0 ml of trypsin-EDTA solution. The cell suspensions were transferred to 20 ml of an isotonic diluent and 0.5 ml of the diluted cell suspension was counted with a Coulter particle counter. Cell counts from test compound-treated cultures were normalized to cell counts obtained from DMSO-treated controls and expressed as percent inhibition. […]

[2] = tested on: human pulmonary artery smooth muscle cells (PASMC); assay: Inhibition of smooth muscle cell proliferation, PASMC; details: 144 h, PASMC cell line, incubated six days, Coulter cell count normalized to DMSO-treated controls, read-out: IC50 (concentration of test compound producing a 50% inhibition of cell proliferation)
Description: as §1

[3] = tested on: human coronary artery smooth muscle cells (CASMC); assay: Inhibition of smooth muscle cell proliferation, CASMC; details: 144 h, CASMC cell line, incubated six days, Coulter cell count normalized to DMSO-treated controls, read-out: IC50 (concentration of test compound producing a 50% inhibition of cell proliferation)
Description: as §1

Cn1cncc1C(N)(c1ccc(Cl)cc1)c1ccc2c(c1)c(-c1cccc(Cl)c1)cc(=O)n2C (single isomer, unassigned; (+)) [Co. No. 75, (+)-6-[amino(4-chloro-phenyl)(1-methyl-1H-imidazol-5-yl)methyl]-4-(3-chlorophenyl)-1-methyl-2(1H)-quinolinone]
IC50 [1]: 14 nM | IC50 [2]: 24 nM | IC50 [3]: 16 nM
